Laboratory results as given in the supplement of paper PMC10132981, “Formate overflow drives toxic folate trapping in MTHFD1 inhibited cancer cells” (Nature Metabolism, 2023).
Where “and” joins values, the source holds several entries; their conditions need not be identical. Equal entries are not always repeated.

Tested on: SW620
Assay: cell viability relative to lowest-dose well (resazurin, 96 h); higher = more viable
Settings: RPMI + 10% FBS
Method in brief: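 Each value gives viability as percent of the lowest-dose well, drawn from independent replicate cultures. Cells (HCT116, 500 cells/well; SW620, 1,000 cells/well) in 50 µl RPMI with 10% FBS and a metabolite supplement were exposed in 384-well plates to compound dilution series for 96 h at 37 °C, 5% CO2. Readout was fluorescence at 595 nm from resorufin formed from resazurin (10 µg ml^−1) over 5 h.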

O=c1[nH]cc(F)c(=O)[nH]1 [5-fluorouracil]
cell viability
Settings | 0.0001 M | 0.01 µM | 0.0278 µM | 0.0774 µM | 0.215 µM | 0.599 µM | 1.67 µM | 4.64 µM | 12.9 µM | 35.9 µM
metabolite supplement: 1uM folinic acid | 6.83% | 102% | 100.2% | 100% | 99.7% | 99% | 83.6% | 48.8% | 26.2% | 12%
metabolite supplement: 50uM thymidine | 6.07% and 5.27% | 106% | 99.3% | 97.1% | 96.7% | 94.2% | 74.8% | 49.1% | 26.6% and 22.5% | 10.4%
metabolite supplement: 50uM thymidine + 1uM folinic acid | 7.17% | 105% | 106% | 103% | 103% | 100% | 83.2% | 51.5% | 26.3% | 11.6%
metabolite supplement: 50uM thymidine + 250uM folic acid | 6.77% | – | – | – | – | 97.8% | 79.1% | 52.8% | 26.3% | 11.7%
metabolite supplement: 250uM folic acid | 6.37% | – | – | – | – | – | 83.4% | 51.4% | 27.3% | 11.9%
metabolite supplement: vehicle | 6.87% and 5.97% | 99.5% | 99.5% | 101% | 97.4% | 95.9% and 98.1% | 80.3% | 53% | 29.5% and 26.5% | 11.6%

CN(Cc1cnc2nc(N)nc(N)c2n1)c1ccc(C(=O)N[C@@H](CCC(=O)O)C(=O)O)cc1 [methotrexate]
cell viability
Settings | 0.001 µM | 0.00278 µM | 0.00774 µM | 0.0215 µM | 0.0599 µM | 0.167 µM | 0.464 µM | 1.29 µM | 3.59 µM | 10 µM
metabolite supplement: 1uM folinic acid | 101% | 101% | 100% | 100% | 96.1% | 85.3% | 59.2% | 51.8% | 48.7% | 31.6%
metabolite supplement: 50uM thymidine | 95.8% | 96.1% | 73.1% | 55% | 30.1% | 26.8% and 27.8% | 27.5% | 26% | 26.7% | 26.6%
metabolite supplement: 50uM thymidine + 1uM folinic acid | 102% | 102% | 101% | 103% | 102% | 85.4% | 68.2% | 49.2% | 43.4% | 39.9%
metabolite supplement: 50uM thymidine + 250uM folic acid | – | – | 98.6% | 94.3% | 79.3% | 45.2% | 37.4% | 37.2% | 35.5% | 35.5%
metabolite supplement: 250uM folic acid | – | – | 98.4% | 89.1% | 78% | 47.8% | 29.7% | 27.5% | 27.3% | 27.3%
metabolite supplement: vehicle | 96.5% | 93.7% | 70.1% | 39.2% | 29.9% and 27.9% | 32% and 27.2% | 27.4% | 26.9% | 25.7% | 26%
